Source: ChEMBL document CHEMBL4725268, “Anticonvulsant and analgesic in neuropathic pain activity in a group of new aminoalkanol derivatives” (Bioorg Med Chem Lett, 2020)

What was measured:
[1] = Genotoxicity in Salmonella typhimurium TA98 assessed as mutagenic index at 2.5 ug by AMES test; type: toxicity, Salmonella enterica subsp. enterica serovar Typhimurium; details: in vivo; dose 2.5 µg
[2] = Genotoxicity in Salmonella typhimurium TA98 assessed as number of revertant at 2.5 ug by AMES test (reference value: 8 to 8.3); type: toxicity, Salmonella enterica subsp. enterica serovar Typhimurium; details: in vivo; dose 2.5 µg

Nc1ccc([N+](=O)[O-])cc1N
Activity_index [1]: 62.3
Activity [2]: 519
